Our source for the γs^D (n = 3) values is patent publication US7163672B2, “Pharmaceutical aerosol formulation” (AstraZeneca AB, priority 2000, dated 2007).

The data set is described as follows: Surface energy by inverse gas chromatography (IGC). Format: physicochemical. The settings on record: 35° C., powder. The protocol:
Surface energy of the drug and the drug surfactant particles was measured by inverse gas chromatography. A silanised U-shaped column (3 mm internal diameter, 30 cm length) was packed with approximately 400 mg of the test powder and dried under nitrogen for 24 hours at 50° C. The powder bed was then allowed to settle for 24 hours at 35° C. (temperature used during the experiments) under nitrogen. The test probes used were: hexane, heptane, octane, chloroform, CCl4, benzene, acetone, tetrahydrofuran, ethyl acetate and diethyl ether. One ml of air containing a minute concentration of each gaseous probe was injected into the column and the retention time measured.

For the molecule `CCC(=O)OCC(=O)[C@@]1(OC(=O)CC)[C@@H](C)C[C@H]2[C@@H]3CCC4=CC(=O)C=C[C@]4(C)[C@@]3(Cl)[C@@H](O)C[C@@]21C` [BDP, Beclomethasone dipropionate], the γs^D (n = 3) turned out to be 52.3 mJ/m². In the case of Salbutamol sulphate it was 43.3 mJ/m².
